Results: the supplement of paper PMC8882468

Columns and labels:
Test in all cases: CTG-3D luminescence at 96 h relative to day-0 seeding control (ratio to day 0); higher = more growth / less cytotoxicity; PDxO 3D drug screen, 96 h, CTG-3D normalised to day-0 seeding control.
HCI-005.E2 = test system: HCI-005.E2 (organoid from a breast cancer xenograft with a HER2-positive history)
HCI-001 = test system: HCI-001 (organoid from a triple-negative breast cancer xenograft)
HCI-016 = test system: HCI-016 (organoid from a triple-negative breast cancer xenograft)
HCI-008 = test system: HCI-008 (organoid from a HER2-enriched breast cancer xenograft)
HCI-015 = test system: HCI-015 (organoid from a triple-negative breast cancer xenograft)

CNC(=O)c1cccc(-c2ccc3c(N4CCOC[C@@H]4C)nc(N4CCOC[C@@H]4C)nc3n2)c1 [vistusertib]
HCI-005.E2
Settings | CTG-3D luminescence at 96 h
12.5 pM | 1.89
0.00025 µM | 2.02
0.005 µM | 2.14
0.1 µM | 2.05
1 µM | 0.528
10 µM | 0.53
100 µM | 0.57
625 fM | 1.98

CTG-3D luminescence at 96 h
Settings | 12.5 pM | 0.00025 µM | 0.005 µM | 0.1 µM | 1 µM | 10 µM | 100 µM | 625 fM
HCI-001, days in culture: 240 | 1.6 | 1.12 | 0.733 | 0.68 | 0.589 | 0.404 | 0.27 | 1.82
HCI-001, days in culture: 260 | 2.82 | 1.1 | 1.62 | 1.31 | 0.501 | 0.89 | 0.406 | 1.23
HCI-001, days in culture: 269 | 1.63 | 1.62 | 1.55 | 1.03 | 0.524 | 0.533 | 0.378 | 1.6
HCI-001, days in culture: 327 | 1.63 | 1.59 | 1.68 | 1.5 | 1.09 | 0.485 | 0.721 | 1.93
HCI-001, days in culture: 346 | 1.29 | 1.31 | 1.14 | 0.926 | 0.641 | 0.549 | 0.566 | 1.28
HCI-001, days in culture: 364 | 1.51 | 1.3 | 1.38 | 0.795 | 0.495 | 0.606 | 0.601 | 1.78
HCI-008, days in culture: 228 | 1.54 | 1.64 | 1.41 | 0.913 | 0.71 | 0.548 | 0.289 | 1.66
HCI-008, days in culture: 244 | 1.33 | 1.73 | 2.19 | 1.74 | 1.08 | 0.812 | 0.329 | 2.1
HCI-015, days in culture: 172 | 2.36 | 1.61 | 2.07 | 0.997 | 0.995 | 0.545 | 0.36 | 2.7
HCI-015, days in culture: 191 | 1.84 | 1.24 | 1.54 | 0.827 | 0.859 | 0.436 | 0.329 | 1.43
HCI-015, days in culture: 218 | 2.16 | 1.84 | 2.09 | 1.41 | 0.874 | 0.543 | 0.305 | 2.18
HCI-016, days in culture: 153 | 2.83 | 1.97 | 2.44 | 1.36 | 1.01 | 1.52 | 0.486 | 1.72
HCI-016, days in culture: 172 | 2.41 | 1.96 | 1.67 | 1.67 | 0.7 | 0.422 | 0.424 | 1.42
HCI-016, days in culture: 190 | 1.92 | 1.44 | 1.77 | 1.19 | 0.838 | 0.424 | 0.374 | 1.44
HCI-016, days in culture: 199 | 1.72 | 1.65 | 1.77 | 1.76 | 0.654 | 0.556 | 0.348 | 1.81
